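A five-concentration, 48-hour dose response in 96-well plates underlies each endpoint, interpolated linearly between surrounding concentrations. TGI denotes the concentration required for complete inhibition of growth.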
Columns and labels:
Test in all cases: NCI anticancer screen, dose series, 48 h
786-0 renal = system: 786-0 renal
A498 renal = system: A498 renal
A549 NSCLC = system: A549 NSCLC
ACHN renal = system: ACHN renal
CAKI-1 renal = system: CAKI-1 renal
CCRF-CEM leukemia = system: CCRF-CEM leukemia
COLO 205 colon = system: COLO 205 colon
DLD-1 colon = system: DLD-1 colon
DMS 114 small cell lung = system: DMS 114 small cell lung
DMS 273 small cell lung = system: DMS 273 small cell lung
EKVX NSCLC = system: EKVX NSCLC
HCC-2998 colon = system: HCC-2998 colon
HCT-116 colon = system: HCT-116 colon
HCT-15 colon = system: HCT-15 colon
HL-60(TB) leukemia = system: HL-60(TB) leukemia
HOP-62 NSCLC = system: HOP-62 NSCLC
HOP-92 NSCLC = system: HOP-92 NSCLC
HT29 colon = system: HT29 colon
IGROV1 ovarian = system: IGROV1 ovarian
K-562 leukemia = system: K-562 leukemia
KM12 colon = system: KM12 colon
KM20L2 colon = system: KM20L2 colon
LOX IMVI melanoma = system: LOX IMVI melanoma
LXFL 529 NSCLC = system: LXFL 529 NSCLC
M14 melanoma = system: M14 melanoma
M19-MEL melanoma = system: M19-MEL melanoma
MALME-3M melanoma = system: MALME-3M melanoma
MOLT-4 leukemia = system: MOLT-4 leukemia
NCI-H226 lung = system: NCI-H226 lung
NCI-H23 lung = system: NCI-H23 lung
NCI-H460 lung = system: NCI-H460 lung
NCI-H522 lung = system: NCI-H522 lung
OVCAR-3 ovarian = system: OVCAR-3 ovarian
OVCAR-4 ovarian = system: OVCAR-4 ovarian
OVCAR-5 ovarian = system: OVCAR-5 ovarian
OVCAR-8 ovarian = system: OVCAR-8 ovarian
RPMI-8226 leukemia = system: RPMI-8226 leukemia
RXF-631 renal = system: RXF-631 renal
SF-268 CNS = system: SF-268 CNS
SF-295 CNS = system: SF-295 CNS
SF-539 CNS = system: SF-539 CNS
SK-MEL-2 melanoma = system: SK-MEL-2 melanoma
SK-MEL-28 melanoma = system: SK-MEL-28 melanoma
SK-MEL-5 melanoma = system: SK-MEL-5 melanoma
SK-OV-3 ovarian = system: SK-OV-3 ovarian
SN12C renal = system: SN12C renal
SNB-19 CNS = system: SNB-19 CNS
SNB-75 CNS = system: SNB-75 CNS
SW-620 colon = system: SW-620 colon
TK-10 renal = system: TK-10 renal
U251 CNS = system: U251 CNS
UACC-257 melanoma = system: UACC-257 melanoma
UACC-62 melanoma = system: UACC-62 melanoma
UO-31 renal = system: UO-31 renal
XF 498 CNS = system: XF 498 CNS

Measured: TGI

Cc1cc(N(CCC#N)CCC#N)ccc1/C=C/C(=O)Nc1cccc(Cl)c1
> 100 µM: 786-0 renal | A498 renal | A549 NSCLC | ACHN renal | CAKI-1 renal | CCRF-CEM leukemia | COLO 205 colon | DLD-1 colon | DMS 114 small cell lung | DMS 273 small cell lung | EKVX NSCLC | HCC-2998 colon | HCT-116 colon | HCT-15 colon | HL-60(TB) leukemia | HOP-62 NSCLC | HOP-92 NSCLC | HT29 colon | IGROV1 ovarian | K-562 leukemia | KM12 colon | KM20L2 colon | LOX IMVI melanoma | LXFL 529 NSCLC | M14 melanoma | M19-MEL melanoma | MALME-3M melanoma | MOLT-4 leukemia | NCI-H226 lung | NCI-H23 lung | NCI-H460 lung | NCI-H522 lung | OVCAR-3 ovarian | OVCAR-4 ovarian | OVCAR-5 ovarian | OVCAR-8 ovarian | RPMI-8226 leukemia | RXF-631 renal | SF-268 CNS | SF-295 CNS | SF-539 CNS | SK-MEL-2 melanoma | SK-MEL-28 melanoma | SK-MEL-5 melanoma | SK-OV-3 ovarian | SN12C renal | SNB-19 CNS | SNB-75 CNS | SW-620 colon | TK-10 renal | U251 CNS | UACC-257 melanoma | UACC-62 melanoma | UO-31 renal | XF 498 CNS
